We go through 22 molecules from patent US20090291968A1, “SUBSTITUTED INDAZOLE DERIVATIVES, THEIR MANUFACTURE AND USE AS PHARMACEUTICAL AGENTS” (priority 2006, published 2009).

Molecules are shown by their SMILES.

The test system of this experiment is HCT 116 cells. The experiment is described as follows: CellTiter-Glo assay in HCT 116 cells (cell viability). It counts as cell-based. The note with it: 120 h; HCT 116 human colon carcinoma cells, 5 days incubation, CellTiter-Glo luminescence. The protocol: The CellTiter-Glo™ Luminescent Cell Viability Assay (Promega) is a homogeneous method of determining the number of viable cells in culture based on quantitation of the ATP present, which signals the presence of metabolically active cells.
HCT 116 cells (human colon carcinoma, ATCC-No. CCl-247) were cultivated in RPMI 1640 medium with GlutaMAX™ I (Invitrogen, Cat-No. 61870-010), 2,5% Fetal Calf Serum (FCS, Sigma Cat-No. F4135 (FBS)); 100 Units/ml penicillin/100 μg/ml streptomycin (=Pen/Strep from Invitrogen Cat. No. 15140). For the assay the cells were seeded in 384 well plates, 1000 cells per well, in the same medium. The next day the test compounds were added in various concentrations ranging from 30 μM to 0.0015 μM (10 concentrations, 1:3 diluted). After 5 days the CellTiter-Glo™ assay was done according to the instructions of the manufacturer (CellTiter-Glo™ Luminescent Cell Viability Assay, from Promega). In brief: the cell-plate was equilibrated to room temperature for approximately 30 minutes and than the CellTiter-Glo™ reagent was added. The contents were carefully mixed for 15 minutes to induce cell lysis. After 45 minutes the luminescent signal was measured in Victor 2, (scanning multiwell spectrophotometer, Wallac).
1st. Day: • Medium: RPMI 1640 with GlutaMAX™ I (Invitrogen, Cat-Nr. 61870), 5% FCS (Sigma Cat.-No. F4135), Pen/Strep (Invitrogen, Cat No. 15140). • HCT116 (ATCC-No. CCl-247): 1000 cells in 60 μl per well of 384 well plate (Greiner 781098, μClear-plate white) • After seeding incubate plates 24 h at 37° C., 5% CO2 2nd. Day: Induction (Treatment with Compounds, 10 Concentrations):
In order to achieve a final concentration of 30 μM as highest concentration 3.5 μl of 10 mM compound stock solution were added directly to 163 μl media. Then step e) of the dilution procedure described below, was followed.
In order to achieve the second highest to the lowest concentrations, a serial dilution with dilution steps of 1:3 was followed according to the procedure (a-e) as described here below: • a) for the second highest concentration add 10 μl of 10 mM stock solution of compound to 20 μl dimethylsulfoxide (DMSO) • b) dilute 8×1:3 (always 10 μl to 20 μl DMSO) in this DMSO dilution row (results in 9 wells with concentrations from 3333.3 μM to 0.51 μM) • c) dilute each concentration 1:47.6 (3.5 μl compound dilution to 163 μl media) • e) add 10 μl of every concentration to 60 μl media in the cell plate resulting in final concentration of DMSO: 0.3% in every well and resulting in 10 final concentration of compounds ranging from 30 μM to 0.0015 μM. • Each compound is tested in triplicate. • Incubate 120 h (5 days) at 37° C., 5% CO2
• Add 30 μl CellTiter-Glo™ Reagent (prepared from CellTiter-Glo™ Buffer and CellTiter-Glo™ Substrate (lyophilized) purchased from Promega) per well, • shake 15 minutes at room temperature • incubate further 45 minutes at room temperature without shaking
• Victor 2 scanning multiwell spectrophotometer (Wallac), Luminescence mode (0.5 sec/read, 477 nm) • Determine IC50 using a non-linear curve fit (XLfit software (ID Business Solution Ltd., Guilford, Surrey, UK))
On the technique in general: Cellular ATP, detected with luciferase, serves as a proxy for viable cell number.
The term IC50 denotes the midpoint of a concentration-inhibition curve. `CCN1C(=O)C(C)(C)c2cc3nc(-c4n[nH]c5cc(-c6nc[nH]n6)ccc45)[nH]c3cc21` [Example 2, 5-Ethyl-7,7-dimethyl-2-[6-(1H-[1,2,4]triazol-3-yl)-1H-indazol-3-yl]-5,7-dihydro-3H-imidazo[4,5-f]indol-6-one]: the IC50 was 0.025 to 1.5 µM.
In the case of `CCN1C(=O)C(C)(C)c2cc3nc(-c4n[nH]c5cc(/C=C/c6ccccc6)ccc45)[nH]c3cc21` [Example 5, 5-Ethyl-7,7-dimethyl-2-[6-((E)-styryl)-1H-indazol-3-yl]-5,7-dihydro-3H-imidazo[4,5-f]indol-6-one] it was 0.576 µM; in that of `CCN1C(=O)C(C)(C)c2cc3nc(-c4n[nH]c5cc(-c6cnn(C)c6)ccc45)[nH]c3cc21` [Example 7, 5-Ethyl-7,7-dimethyl-2-[6-(1-methyl-1H-pyrazol-4-yl)-1H-indazol-3-yl]-5,7-dihydro-3H-imidazo[4,5-f]indol-6-one], 0.025 to 1.5 µM; in that of `CCN1C(=O)C(C)(C)c2cc3nc(-c4n[nH]c5cc(-c6cccnc6)ccc45)[nH]c3cc21` [Example 8, 5-Ethyl-7,7-dimethyl-2-(6-pyridin-3-yl-1H-indazol-3-yl)-5,7-dihydro-3H-imidazo[4,5-f]indol-6-one], 0.161 µM.
The same measure for `CCN1C(=O)C(C)(C)c2cc3nc(-c4n[nH]c5cc(/C=C/c6ccc(-c7ccccc7)cc6)ccc45)[nH]c3cc21` [Example 9, 2-[6-((E)-2-Biphenyl-4-yl-vinyl)-1H-indazol-3-yl]-5-ethyl-7,7-dimethyl-5,7-dihydro-3H-imidazo[4,5-f]indol-6-one]: 0.025 to 1.5 µM.
The same measure for `CCN1C(=O)C(C)(C)c2cc3nc(-c4n[nH]c5cc(/C=C/c6ccc(OC)cc6)ccc45)[nH]c3cc21` [Example 10, 5-Ethyl-2-{6-[(E)-2-(4-methoxy-phenyl)-vinyl]-1H-indazol-3-yl}-7,7-dimethyl-5,7-dihydro-3H-imidazo[4,5-f]indol-6-one]: 0.025 to 1.5 µM; for `CCN1C(=O)C(C)(C)c2cc3nc(-c4n[nH]c5cc(-c6ccc(N(C)C)cc6)ccc45)[nH]c3cc21` [Example 12, 2-[6-(4-Dimethylamino-phenyl)-1H-indazol-3-yl]-5-ethyl-7,7-dimethyl-5,7-dihydro-3H-imidazo[4,5-f]indol-6-one]: 0.025 to 1.5 µM; for `CCN1C(=O)C(C)(C)c2cc3nc(-c4n[nH]c5cc(-c6ccc(C(C)=O)cc6)ccc45)[nH]c3cc21` [Example 13, 2-[6-(4-Acetyl-phenyl)-1H-indazol-3-yl]-5-ethyl-7,7-dimethyl-5,7-dihydro-3H-imidazo[4,5-f]indol-6-one]: 0.328 µM.
In the case of `CCN1C(=O)C(C)(C)c2cc3nc(-c4n[nH]c5cc(-c6ccc(OC)nc6)ccc45)[nH]c3cc21` [Example 14, 5-Ethyl-2-[6-(6-methoxy-pyridin-3-yl)-1H-indazol-3-yl]-7,7-dimethyl-5,7-dihydro-3H-imidazo[4,5-f]indol-6-one], the IC50 lay in the range of 0.025 to 1.5 µM.
The same measure for `CCN1C(=O)C(C)(C)c2cc3nc(-c4n[nH]c5cc(-c6cccs6)ccc45)[nH]c3cc21` [Example 16, 5-Ethyl-7,7-dimethyl-2-(6-thiophen-2-yl-1H-indazol-3-yl)-5,7-dihydro-3H-imidazo[4,5-f]indol-6-one]: 0.025 to 1.5 µM; for `CCN1C(=O)C(C)(C)c2cc3nc(-c4n[nH]c5cc(/C=C/c6ccc(Cl)cc6)ccc45)[nH]c3cc21` [Example 18, 2-{6-[(E)-2-(4-Chloro-phenyl)-vinyl]-1H-indazol-3-yl}-5-ethyl-7,7-dimethyl-5,7-dihydro-3H-imidazo[4,5-f]indol-6-one]: 0.025 to 1.5 µM.
The same measure for `CCN1C(=O)C(C)(C)c2cc3nc(-c4n[nH]c5cc(-c6ccc7c(c6)OCO7)ccc45)[nH]c3cc21` [Example 20, 2-(6-Benzo[1,3]dioxol-5-yl-1H-indazol-3-yl)-5-ethyl-7,7-dimethyl-5,7-dihydro-3H-imidazo[4,5-f]indol-6-one]: 0.562 µM; for `CCN1C(=O)C(C)(C)c2cc3nc(-c4n[nH]c5cc(-c6cccc(N(C)C)c6)ccc45)[nH]c3cc21` [Example 21, 2-[6-(3-Dimethylamino-phenyl)-1H-indazol-3-yl]-5-ethyl-7,7-dimethyl-5,7-dihydro-3H-imidazo[4,5-f]indol-6-one]: 0.025 to 1.5 µM.
Molecule `CCN1C(=O)C(C)(C)c2cc3nc(-c4n[nH]c5cc(-c6cccc([N+](=O)[O-])c6)ccc45)[nH]c3cc21` [Example 22, 5-Ethyl-7,7-dimethyl-2-[6-(3-nitro-phenyl)-1H-indazol-3-yl]-5,7-dihydro-3H-imidazo[4,5-f]indol-6-one] came in with an IC50 of 0.025 to 1.5 µM.
In the case of `CCN1C(=O)C(C)(C)c2cc3nc(-c4n[nH]c5ccc(-c6ccc(OC)nc6)cc45)[nH]c3cc21` [Example 24, 5-Ethyl-2-[5-(6-methoxy-pyridin-3-yl)-1H-indazol-3-yl]-7,7-dimethyl-5,7-dihydro-3H-imidazo[4,5-f]indol-6-one; compound with acetic acid] it was 0.025 to 1.5 µM; in that of `CCN1C(=O)C(C)(C)c2cc3nc(-c4n[nH]c5ccc(-c6ccsc6)cc45)[nH]c3cc21` [Example 25, 5-Ethyl-7,7-dimethyl-2-(5-thiophen-3-yl-1H-indazol-3-yl)-5,7-dihydro-3H-imidazo[4,5-f]indol-6-one; compound with acetic acid], 0.025 to 1.5 µM; in that of `CCN1C(=O)C(C)(C)c2cc3nc(-c4n[nH]c5ccc(-c6cnn(C)c6)cc45)[nH]c3cc21` [Example 26, 5-Ethyl-7,7-dimethyl-2-[5-(1-methyl-1H-pyrazol-4-yl)-1H-indazol-3-yl]-5,7-dihydro-3H-imidazo[4,5-f]indol-6-one; compound with acetic acid], 0.025 to 1.5 µM.
In turn, `CCN1C(=O)C(C)(C)c2cc3nc(-c4n[nH]c5ccc(-c6cccnc6)cc45)[nH]c3cc21` [Example 27, 5-Ethyl-7,7-dimethyl-2-(5-pyridin-3-yl-1H-indazol-3-yl)-5,7-dihydro-3H-imidazo[4,5-f]indol-6-one] had a concentration for half-maximal inhibition (IC50) of 0.025 to 1.5 µM.
The same measure for `CCN1C(=O)C(C)(C)c2cc3nc(-c4n[nH]c5cc(-c6cncnc6)ccc45)[nH]c3cc21` [Example 32, 5-Ethyl-7,7-dimethyl-2-(6-pyrimidin-5-yl-1H-indazol-3-yl)-5,7-dihydro-3H-imidazo[4,5-f]indol-6-one]: 0.025 to 1.5 µM.
Consider `CCN1C(=O)C(C)(C)c2cc3nc(-c4n[nH]c5cc(-c6ccccn6)ccc45)[nH]c3cc21` [Example 33, 5-Ethyl-7,7-dimethyl-2-(6-pyridin-2-yl-1H-indazol-3-yl)-5,7-dihydro-3H-imidazo[4,5-f]indol-6-one], for which the IC50 lay within 0.025 to 1.5 µM.
The same measure for `CCN1C(=O)C(C)(C)c2cc3nc(-c4n[nH]c5ccc(-c6cncnc6)cc45)[nH]c3cc21` [Example 35, 5-Ethyl-7,7-dimethyl-2-(5-pyrimidin-5-yl-1H-indazol-3-yl)-5,7-dihydro-3H-imidazo[4,5-f]indol-6-one]: 0.025 to 1.5 µM.
The same measure for `CCN1C(=O)C(C)(C)c2cc3nc(-c4n[nH]c5cc(-c6cn[nH]c6)ccc45)[nH]c3cc21` [Example 37, 5-Ethyl-7,7-dimethyl-2-[6-(1H-pyrazol-4-yl)-1H-indazol-3-yl]-5,7-dihydro-3H-imidazo[4,5-f]indol-6-one]: 0.025 to 1.5 µM.
